Paper PMC8325119, “A Novel Class of Functionalized Synthetic Fluoroquinolones with Dual Antiproliferative - Antimicrobial Capacities” (Asian Pacific Journal of Cancer Prevention : APJCP, 2021)
Where “and” joins values, the source holds several entries; their conditions need not be identical. Equal entries are not always repeated. Where two headings read alike, the source gives them in different places.

How the values were obtained:
HELA cell line = assay: SRB cytotoxicity assay, HELA cervical cancer cell line; conditions: Homo sapiens, HeLa, 72 h
Procedure: (§1) All reagents and chemicals of analytical grade were obtained from Sigma (Dorset, UK); unless stated otherwise. All chemicals, reagents and solvents (of analytical grade) were used directly without further purification. MCF7 cell line ATCC® HTB-22™, T47D cell line ATCC® HTB-133™, K562 cell line ATCC® CCL-243™, Panc1 cell line ATCC® CRL-1469™. A375.S2 cell line ATCC® CRL-1872™, A549 cell line ATCC® CCL-185™, HELA cell line ATCC® CCL-2™ were cultured in Dulbecco’s modified eagle’s medium (DMEM). (DMEM) containing foetal bovine serum (FBS) (Bio Whittaker, Verviers, Belgium), 4-(2-hydroxyethyl)-1-piperazine ethane sulfonic acid (HEPES) Buffer, L-glutamine, gentamicin, penicillin, and streptomycin sulphate (Sigma, St. Luis, MO, USA), trypsin, trypan blue, Ciprofloxacin HCl from Aarti drugs Ltd/India, was a kind gift from Pharma International Company- Amman; Fluconazole from Neopharma, United Arab Emirates, a kind gift from Pharmaceutical Research Unit, Amman; Trypon soya agar (TSA), trypon soya broth (TSB), sabouraud dextrose agar (SDA) were obtained from Liofilchem (Italy) or Oxoid LTD (Basingstoke, England), they were reconstituted and sterilized by autoclave at 121 °C for 15 min.
(§2) The cytotoxicity measurements were determined using Sulforhodamine B (SRB) colorimetric assay for cytotoxicity screening. The mechanism of reduction of cell viability was adopted as described previously (Arabiyat et al., 2016a,b; 2017; Alabsi et al., 2018; Jumah, 2018; AlShahrabi et al., 2020). Human periodontal ligament fibroblasts (PDL) are a primary normal cell culture for verification of selective cytotoxicity. […] Selectivity ratio as indicative factor of the safety of compounds was calculated by dividing IC50 of tested compound on normal fibroblasts by IC50 of the same compound on specific pathological cell line (Hoffman et al., 2011).

T47D cell line = assay: cells; conditions: Homo sapiens, T47D, 72 h, read-out: Cytotoxicity IC50 value, T47D cell line
Procedure: as §1, §2

MCF7 cell line = assay: SRB cytotoxicity assay, MCF7 breast cancer cell line; conditions: Homo sapiens, MCF7, 72 h, read-out: Cytotoxicity IC50 value, MCF7 cell line
Procedure: as §1, §2

K562 cell line = assay: SRB cytotoxicity assay, K562 leukaemia cell line; conditions: Homo sapiens, K562, 72 h
Procedure: as §1, §2

A375.S2 cell line = assay: SRB cytotoxicity assay, A375.S2 melanoma cell line; conditions: Homo sapiens, A375-S2, 72 h, read-out: Cytotoxicity IC50 value, A375.S2 cell line
Procedure: as §1, §2

PDL Fibroblasts = assay: SRB cytotoxicity on normal periodontal ligament fibroblasts, selective cytotoxicity; assay type: cell-based, Human; conditions: for IC50: Homo sapiens, Fibroblast, normal fibroblasts, SRB, 72 h, mean ± SD; for Selectivity index SI (K562): IC50 on PDL fibroblasts divided by IC50 on K562; for Selectivity index SI (HELA): IC50 on PDL fibroblasts divided by IC50 on HELA
Procedure: as §2

PANC 1 cell line = assay: SRB cytotoxicity assay, PANC 1 pancreatic cancer cell line; conditions: Homo sapiens, PANC-1, 72 h, read-out: Cytotoxicity IC50 value, PANC 1 cell line
Procedure: as §1, §2

A549 cell line = assay: SRB cytotoxicity assay, A549 lung cancer cell line; conditions: Homo sapiens, A549, 72 h, read-out: Cytotoxicity IC50 value, A549 cell line
Procedure: as §1, §2

[1] = read-out: Cytotoxicity IC50 value, HELA cell line, SRB, 72 h, 0.1-200 μg/mL range, mean ± SD, value in brackets
[2] = read-out: Cytotoxicity IC50 value, HELA cell line, SRB, 72 h, 0.1-200 μg/mL range, mean ± SD, NI = lack of cytotoxicity in range
[3] = read-out: Cytotoxicity IC50 value, K562 cell line, SRB, 72 h, 0.1-200 μg/mL range, mean ± SD, value in brackets
[4] = read-out: Cytotoxicity IC50 value, K562 cell line, SRB, 72 h, 0.1-200 μg/mL range, mean ± SD, NI = lack of cytotoxicity in range
[5] = 0.1-200 μg/mL range, NI = lack of cytotoxicity in range

COc1ccc(-n2nnc3c4c(cc(F)c32)c(=O)c(C(=O)O)cn4C2CC2)cc1 [5c, 9-cyclopropyl-4-fluoro-3-(4-methoxy-phenyl)-6-oxo-6,9-dihydro-3H-[1,2, and 3] triazolo [4,5-h] quinoline-7-carboxylic acid]
IC50 (HELA cell line; [1]): 179 µg/mL
IC50 (HELA cell line; [2]): 454 ± 19.1 µM
IC50 (T47D cell line): 398 µM and 156 µg/mL
IC50 (MCF7 cell line): > 200 µg/mL
IC50 (K562 cell line; [3]): 97.4 µg/mL
IC50 (K562 cell line; [4]): 248 ± 44.6 µM
IC50 (A375.S2 cell line): 453 µM and 178 µg/mL
IC50 (PDL Fibroblasts; [5]): 496 ± 52.5 µM
IC50 (PDL Fibroblasts; value in brackets): 195 µg/mL
Selectivity index SI (K562) (PDL Fibroblasts): 2.00
IC50 (PANC 1 cell line): > 200 µg/mL
IC50 (A549 cell line): 427 µM and 168 µg/mL

CCCCCCc1ccc(-n2nnc3c4c(cc(F)c32)c(=O)c(C(=O)O)cn4C2CC2)cc1 [5f, 9-cyclopropyl-4-fluoro-3-(4-hexyl-phenyl)-6-oxo-6,9-dihydro-3H-[1,2,3] triazolo[4,5-h]quinoline-7-carboxylic acid]
IC50 (HELA cell line; [1]): 1.61 µg/mL
IC50 (HELA cell line; [2]): 3.59 ± 0.05 µM
IC50 (T47D cell line): 232 µM and 104 µg/mL
IC50 (MCF7 cell line): 181 µM and 81.1 µg/mL
IC50 (K562 cell line; [3]): 14.1 µg/mL
IC50 (K562 cell line; [4]): 31.5 ± 2.92 µM
IC50 (A375.S2 cell line): 508 µM and 227 µg/mL
IC50 (PDL Fibroblasts; [5]): 474 ± 33.5 µM
IC50 (PDL Fibroblasts; value in brackets): 212 µg/mL
Selectivity index SI (HELA) (PDL Fibroblasts): 132.15
IC50 (PANC 1 cell line): 119 µM and 53.4 µg/mL
IC50 (A549 cell line): 362 µM and 162 µg/mL

COc1ccc(-n2nnc3c4c(cc(F)c32)c(=O)c(C(=O)O)cn4C2CC2)c(OC)c1 [5g, 9-cyclopropyl-3-(2,4-dimethoxy-phenyl)-4-fluoro-6-oxo-6,9-dihydro-3H-[1,2,3] triazolo[4,5-h]quinoline-7-carboxylic acid]
IC50 (HELA cell line; [1]): 71.8 µg/mL
IC50 (HELA cell line; [2]): 166 ± 26 µM
IC50 (T47D cell line): 237 µM and 102 µg/mL
IC50 (MCF7 cell line): 143 µM and 61.9 µg/mL
IC50 (K562 cell line; [3]): 24.2 µg/mL
IC50 (K562 cell line; [4]): 56 ± 8.04 µM
IC50 (A375.S2 cell line): 272 µM and 118 µg/mL
IC50 (PDL Fibroblasts; [5]): 237 ± 13.5 µM
IC50 (PDL Fibroblasts; value in brackets): 102 µg/mL
Selectivity index SI (K562) (PDL Fibroblasts): 4.23
IC50 (PANC 1 cell line): > 200 µg/mL
IC50 (A549 cell line): 474 µM and 205 µg/mL

O=C(O)c1cn(C2CC2)c2c([N+](=O)[O-])c(NC3CCCCC3)c(F)cc2c1=O [7a, 7-cyclohexylamino-1-cyclopropyl-6-fluoro-8-nitro-4-oxo-1,4-dihydro-quinoline-3-carboxylic acid]
IC50 (HELA cell line; [1]): 0.16 µg/mL
IC50 (HELA cell line; [2]): 0.4 ± 0.05 µM
IC50 (T47D cell line): 51.2 µM and 19.9 µg/mL
IC50 (MCF7 cell line): > 200 µg/mL
IC50 (K562 cell line; [3]): 11 µg/mL
IC50 (K562 cell line; [4]): 28.2 ± 2.04 µM
IC50 (A375.S2 cell line): 246 µM and 102 µg/mL
IC50 (PDL Fibroblasts; [5]): 29.9 ± 3.56 µM
IC50 (PDL Fibroblasts; value in brackets): 11.6 µg/mL
Selectivity index SI (HELA) (PDL Fibroblasts): 74.66
IC50 (PANC 1 cell line): 13.2 µM and 5.15 µg/mL
IC50 (A549 cell line): 240 µM and 93.6 µg/mL

Nc1c(NC2CCCCC2)c(F)cc2c(=O)c(C(=O)O)cn(C3CC3)c12 [8a, 8-amino-7-cyclohexylamino-1-cyclopropyl-6-fluoro-4-oxo-1,4-dihydro-quinoline-3-carboxylic acid]
IC50 (HELA cell line; [1]): 45 µg/mL
IC50 (HELA cell line; [2]): 125 ± 21.9 µM
IC50 (T47D cell line): 148 µM and 53.2 µg/mL
IC50 (MCF7 cell line): > 200 µg/mL
IC50 (K562 cell line; [3]): 24.4 µg/mL
IC50 (K562 cell line; [4]): 67.9 ± 6.76 µM
IC50 (A375.S2 cell line): 3.69 µM and 1.33 µg/mL
IC50 (PDL Fibroblasts; [5]): 49.4 ± 2.71 µM
IC50 (PDL Fibroblasts; value in brackets): 17.8 µg/mL
Selectivity index SI (A375.S2) (PDL Fibroblasts; IC50 on PDL fibroblasts divided by IC50 on A375.S2): 12.48
IC50 (PANC 1 cell line): 137 µM and 49.1 µg/mL
IC50 (A549 cell line): 44 µM and 15.8 µg/mL

O=C(O)c1cn(C2CC2)c2c(cc(F)c3c2nnn3C2CCCCC2)c1=O [9a, 3-cyclohexyl-9-cyclopropyl-4-fluoro-6-oxo-6,9-dihydro-3H-[1,2, and 3] triazolo [4,5-h] quinoline-7-carboxylic acid]
IC50 (HELA cell line; [1]): 27.6 µg/mL
IC50 (HELA cell line; [2]): 74.8 ± 1.67 µM
IC50 (T47D cell line): 299 µM and 110 µg/mL
IC50 (MCF7 cell line): 133 µM and 49.2 µg/mL
IC50 (K562 cell line; [4]): > 200 µg/mL
IC50 (A375.S2 cell line): 215 µM and 79.6 µg/mL
IC50 (PDL Fibroblasts; [5]): 252 ± 11.6 µM
IC50 (PDL Fibroblasts; value in brackets): 93.1 µg/mL
Selectivity index SI (HELA) (PDL Fibroblasts): 3.36
IC50 (PANC 1 cell line): 162 µM and 60 µg/mL
IC50 (A549 cell line): 223 µM and 82.3 µg/mL
